Activity calls are given as the source filed them. The calls are words filed in the database; no cut-off is given here.
How the values were obtained:
[1] = system: HeLa; experiment: Cytotoxicity against human HeLa cells assessed as cell proliferation at 10 uM by MTT assay relative to control; assay type: functional; details: read-out: Activity
[2] = system: HeLa; experiment: Cell cycle arrest in human HeLa cells assessed as accumulation at sub G0/G1 phase at 50 uM measured after 48 hrs by FACS analysis; assay type: functional, cell-based
[3] = system: HeLa; experiment: Induction of apoptosis in human HeLa cells assessed as nuclear fragmentation by acridine oranga/ethidium bromide staining based assay; assay type: functional, cell-based
[4] = system: HeLa; experiment: Cell cycle arrest in human HeLa cells assessed as accumulation at sub G0/G1 phase at 10 uM measured after 48 hrs by FACS analysis; assay type: functional, cell-based
[5] = system: HeLa; experiment: Cell cycle arrest in human HeLa cells assessed as accumulation at middle G0/G1 phase at 10 uM measured after 48 hrs by FACS analysis; assay type: functional, cell-based
[6] = system: HeLa; experiment: Cytotoxicity against human HeLa cells assessed as growth inhibition by MTT assay; assay type: functional, cell-based
[7] = system: HeLa; experiment: Cell cycle arrest in human HeLa cells assessed as accumulation at S phase at 10 uM measured after 48 hrs by FACS analysis; assay type: functional, cell-based
[8] = system: HeLa; experiment: Cell cycle arrest in human HeLa cells assessed as accumulation at S phase at 50 uM measured after 48 hrs by FACS analysis; assay type: functional, cell-based
[9] = system: HeLa; experiment: Induction of DNA damage in human HeLa cells assessed as tail DNA formation at IC50 by alkaline Comet assay; assay type: functional
[10] = system: HeLa; experiment: Induction of apoptosis in human HeLa cells assessed as chromatin condensation by acridine oranga/ethidium bromide staining based assay; assay type: functional, cell-based
[11] = system: HeLa; experiment: Induction of DNA damage in human HeLa cells assessed as inhibition of DNA replication; assay type: functional, cell-based
[12] = system: HeLa; experiment: Cell cycle arrest in human HeLa cells assessed as accumulation at early G0/G1 phase at 10 uM measured after 48 hrs by FACS analysis; assay type: functional, cell-based

| Structure (SMILES) | growth at 10 µM [1] | IC50 [6] | further results |
| --- | --- | --- | --- |
| Clc1cc(Cl)c2c(c1)C=C1CCCCC3=Cc4cc(Cl)cc(Cl)c4OC13O2 | 102% | – | – |
| Clc1ccc2c(c1)C=C1CSCC3=Cc4cc(Cl)ccc4OC13O2 | 105% | – | – |
| COc1ccc2c(c1)C=C1CCCC3=Cc4cc(OC)ccc4OC13O2 | 46.6% | 10.7 µM | Activity [2]: inactive; Activity [3]: Active; Activity [4]: Active; Activity [5]: Active; Activity [7]: Active; Activity [8]: inactive |
| COc1ccc2c(c1)OC13Oc4cc(OC)ccc4C=C1CCCCC3=C2 | 108% | – | – |
| C1=C2CCCC3=Cc4ccccc4OC23Oc2ccccc21 | 77% | – | – |
| C1=C2CCCCC3=Cc4ccccc4OC23Oc2ccccc21 | 80.2% | – | – |
| Clc1ccc2c(c1)C=C1CCCC3=Cc4cc(Cl)ccc4OC13O2 | 105% | – | – |
| Brc1ccc2c(c1)C=C1CCCCC3=Cc4cc(Br)ccc4OC13O2 | 111% | – | – |
| COc1ccc2c(c1)OC13Oc4cc(OC)ccc4C=C1CCCC3=C2 | 62.1% | 13.6 µM | Activity [4]: Active; Activity [9]: 3.32 um; Activity [10]: Active; Activity [7]: Active; Activity [11]: Active |
| O=c1[nH]cc(F)c(=O)[nH]1 [FLUOROURACIL] | 73.7% | 15 µM | Activity [9]: 6.91 um |
| Clc1ccc2c(c1)C=C1CCCCC3=Cc4cc(Cl)ccc4OC13O2 | 90.1% | – | – |
| COc1ccc2c(c1)C=C1CCCCC3=Cc4cc(OC)ccc4OC13O2 | 59.3% | 12.2 µM | Activity [3]: Active; Activity [12]: Active; Activity [4]: Active |
